Data taken from ChEMBL document CHEMBL1129852, “Peptidyl -keto thiazole as potent thrombin inhibitors” (Bioorg Med Chem Lett, 1997).

Experiments:
[1] = Relative inhibition of trypsin and thrombin; parameters: reference not given here
Prothrombin = Prothrombin (Homo sapiens, UniProt P00734); experiment: Inhibition of thrombin
Serine protease 1 = biological target: T1, Serine protease 1 (Bos taurus, UniProt P00760); experiment: Inhibition of trypsin
T1 sequence (P00760 whole entry): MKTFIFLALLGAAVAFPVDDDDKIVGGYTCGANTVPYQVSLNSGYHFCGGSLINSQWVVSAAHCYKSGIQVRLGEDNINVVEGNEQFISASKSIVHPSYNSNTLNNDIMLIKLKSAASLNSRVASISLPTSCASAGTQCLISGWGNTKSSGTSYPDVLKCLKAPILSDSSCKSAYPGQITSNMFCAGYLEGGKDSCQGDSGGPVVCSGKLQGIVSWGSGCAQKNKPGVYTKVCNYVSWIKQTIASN

Prolyl endopeptidase = Prolyl endopeptidase (Sus scrofa, UniProt P23687); experiment: The compound was tested for the inhibitory activity against prolyl endo peptidase(PEP) enzyme
Sequence of Prolyl endopeptidase (P23687 whole entry): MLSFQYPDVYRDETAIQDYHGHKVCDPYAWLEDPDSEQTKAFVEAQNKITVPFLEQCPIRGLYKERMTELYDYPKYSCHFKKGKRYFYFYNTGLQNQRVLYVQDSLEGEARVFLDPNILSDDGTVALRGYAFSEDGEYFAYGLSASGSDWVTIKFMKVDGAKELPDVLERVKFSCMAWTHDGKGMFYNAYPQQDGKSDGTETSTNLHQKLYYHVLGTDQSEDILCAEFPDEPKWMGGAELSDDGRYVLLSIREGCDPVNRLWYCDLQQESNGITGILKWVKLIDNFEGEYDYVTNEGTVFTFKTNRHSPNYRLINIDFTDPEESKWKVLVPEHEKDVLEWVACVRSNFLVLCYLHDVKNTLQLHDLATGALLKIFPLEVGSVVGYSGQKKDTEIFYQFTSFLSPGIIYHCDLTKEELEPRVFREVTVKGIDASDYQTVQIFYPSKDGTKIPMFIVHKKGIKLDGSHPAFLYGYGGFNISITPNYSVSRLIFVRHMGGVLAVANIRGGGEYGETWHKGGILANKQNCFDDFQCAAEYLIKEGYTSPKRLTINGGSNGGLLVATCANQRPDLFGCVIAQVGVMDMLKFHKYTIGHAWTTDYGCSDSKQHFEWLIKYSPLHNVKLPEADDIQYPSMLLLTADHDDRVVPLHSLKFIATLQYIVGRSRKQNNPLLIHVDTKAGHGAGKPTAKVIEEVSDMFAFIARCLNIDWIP

[2] = The compound was tested for the inhibitory activity against elastase enzyme; type: functional; conditions: Homo sapiens

Structure (SMILES) | Ratio [1] | IC50 (Prothrombin) | IC50 (Serine protease 1) | IC50 (Prolyl endopeptidase) | IC50 [2]
N=C(N)NCCC[C@@H](NC(=O)[C@@H]1CCCN1C(=O)CCc1ccccc1)C(=O)c1nccs1 | 0.3 | 0.82 µM | 0.23 µM | – | –
C[C@H](NC(=O)[C@@H]1CCCN1C(=O)CCCc1ccccc1)C(=O)c1nccs1 | – | > 1000 µM | > 1000 µM | 0.005 µM | > 1000 µM
CC(C)[C@@H](NC(=O)[C@H](N)Cc1ccccc1)C(=O)N[C@@H](CCCNC(=N)N)C(=O)c1nccs1 | – | 0.0086 µM | 0.18 µM | – | –
N=C(N)NCCC[C@H](NC(=O)[C@@H]1CCCN1C(=O)CCCc1ccccc1)C(=O)c1nccs1 | – | 2 µM | 0.23 µM | 28 µM | > 1000 µM
O=C(c1nccs1)[C@H]1CCCN1C(=O)[C@@H]1CCCN1C(=O)CCCc1ccccc1 | – | > 1000 µM | > 1000 µM | 0.0044 µM | > 1000 µM
NC(N)=NCCC[C@H](NC(=O)[C@@H]1CCCN1C(=O)[C@H](N)Cc1ccccc1)C(=O)c1nccs1 | 2.8 | 0.0015 µM | 0.0042 µM | – | –
NCCCC[C@H](NC(=O)[C@@H]1CCCN1C(=O)CCCc1ccccc1)C(=O)c1nccs1 | – | 46 µM | 2.4 µM | 7.8 µM | –
N=C(N)NCCC[C@@H](NC(=O)[C@@H]1CCCN1C(=O)[C@@H](Cc1ccccc1)NC(=O)OCc1ccccc1)C(=O)c1nccs1 | 0.8 | 0.002 µM | 0.0016 µM | – | –
CC(C)[C@H](NC(=O)[C@@H]1CCCN1C(=O)CCCc1ccccc1)C(=O)c1nccs1 | – | > 1000 µM | > 1000 µM | 7.7 µM | > 1000 µM

Second part, led by results:

Ratio [1] | IC50 (Prothrombin) | IC50 (Serine protease 1) | Structure (SMILES) | IC50 (Prolyl endopeptidase) | IC50 [2]
4.6 | 0.26 µM | 1.2 µM | NCCCC[C@H](NC(=O)[C@@H]1CCCN1C(=O)[C@H](N)Cc1ccccc1)C(=O)c1nccs1 | – | –
0.1 | – | – | CC(=O)N[C@H](Cc1ccccc1)C(=O)N1CCC[C@H]1C(=O)N[C@H](CCCN=C(N)N)C(=O)c1nccs1 | – | –
– | – | 41 µM | N=C(N)NCCC[C@H](NC(=O)[C@@H]1CCCCN1C(=O)[C@H](N)Cc1ccccc1)C(=O)c1nccs1 | – | –
3 | – | – | NC(N)=NCCC[C@H](NC(=O)[C@@H]1CCN1C(=O)[C@H](N)Cc1ccccc1)C(=O)c1nccs1 | – | –
56 | – | – | NC(N)=NCCC[C@@H](NC(=O)[C@@H]1CCCCN1C(=O)[C@H](N)Cc1ccccc1)C(=O)c1nccs1 | – | –
21 | – | – | CC(C)[C@@H](NC(=O)[C@H](N)Cc1ccccc1)C(=O)N[C@@H](CCCN=C(N)N)C(=O)c1nccs1 | – | –
– | 2.3 µM | 0.23 µM | CC(=O)N[C@H](Cc1ccccc1)C(=O)N1CCC[C@H]1C(=O)N[C@H](CCCNC(=N)N)C(=O)c1nccs1 | – | –
– | 0.73 µM | – | N=C(N)NCCC[C@@H](NC(=O)[C@@H]1CCCCN1C(=O)[C@H](N)Cc1ccccc1)C(=O)c1nccs1 | – | –
1.1 | 14 µM | 16 µM | NCCCCC[C@H](NC(=O)[C@@H]1CCCN1C(=O)[C@H](N)Cc1ccccc1)C(=O)c1nccs1 | – | –
– | 0.003 µM | 0.009 µM | N=C(N)NCCC[C@H](NC(=O)[C@@H]1CCN1C(=O)[C@H](N)Cc1ccccc1)C(=O)c1nccs1 | – | –
